Laboratory results taken from patent publication US20240016781A1, “TREATMENT OF KRAS MUTANT CANCERS” (MEI Pharma, Inc., priority 2020, published 2024).
Read-outs that look alike come from different tables or passages of the source.

Assays:
Assay in all cases: 72-hour CellTiter-Glo 2.0 growth inhibition screen (single agent, 9x9 combination dose matrix);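 on Best CI Level: inhibition effect level at which the best CI was calculated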
Format in all cases: cell-based
[1] = test system: HCC44; details: for EC50: HCC44, 72 h;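 on Best CI Level: inhibition effect level at which the best CI was calculated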
[2] = test system: KYSE-410; details: for EC50: KYSE-410, 72 h;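 on Best CI Level: inhibition effect level at which the best CI was calculated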
[3] = test system: NCI-H358; details: for EC50: NCI-H358, 72 h;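 on Best CI Level: inhibition effect level at which the best CI was calculated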
[4] = test system: Panc 04.03; details: for EC50 / Response Area: Panc 04.03, Pancreas;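 on Best CI Level: inhibition effect level at which the best CI was calculated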
[5] = test system: SW837; details: for EC50: SW837, 72 h;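 on Best CI Level: inhibition effect level at which the best CI was calculated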
[6] = HCC44 (KRAS G12C), enhancer + MEI-522 (Voruciclib), 72 h;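 on Best CI Level: inhibition effect level at which the best CI was calculated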
[7] = Homo sapiens, HCC44, Lung, Additional Single Agent Responses (inhibition, % I), 72 h
[8] = Homo sapiens, HCC44, Lung, growth inhibition (GI) curve, single agent, 72 h
[9] = enhancer combined with MEI-522 (Voruciclib), HCC44 (Lung), 72 hours, inhibition data
[10] = Homo sapiens, KYSE-410, Esophageal, Additional Single Agent Responses (inhibition, % I), 72 h
[11] = Homo sapiens, KYSE-410, Esophageal, growth inhibition (GI) curve, single agent, 72 h
[12] = KYSE-410 (KRAS G12C), enhancer + MEI-522 (Voruciclib), 72 h;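 on Best CI Level: inhibition effect level at which the best CI was calculated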
[13] = enhancer combined with MEI-522 (Voruciclib), KYSE-410 (Esophageal), 72 hours, inhibition data
[14] = NCl-H358 (KRAS G12C), enhancer + MEI-522 (Voruciclib), 72 h
[15] = enhancer combined with MEI-522 (Voruciclib), NCl-H358 (Lung), 72 hours, inhibition data
[16] = Panc 04.03 (KRAS G12D), enhancer + MEI-522 (Voruciclib), 72 h;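 on Best CI Level: inhibition effect level at which the best CI was calculated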
[17] = enhancer combined with MEI-522 (Voruciclib), Panc 04.03 (Pancreas), 72 hours, inhibition data
[18] = Homo sapiens, SW837, Colorectal, Additional Single Agent Responses (inhibition, % I), 72 h
[19] = Homo sapiens, SW837, Colorectal, growth inhibition (GI) curve, single agent, 72 h
[20] = SW837 (KRAS G12C), enhancer + MEI-522 (Voruciclib), 72 h;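 on Best CI Level: inhibition effect level at which the best CI was calculated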
[21] = enhancer combined with MEI-522 (Voruciclib), SW837 (Colorectal), 72 hours, inhibition data

EC50 [1, 7]: 18.5 nM
EC50 [1, 8]: 22 nM
IC50 [1, 7]: 25.3 nM
GI50 [1, 8]: 18.7 nM
EC50 ([3]; Homo sapiens, NCl-H358, Lung, Additional Single Agent Responses (inhibition, % I), 72 h): 16.7 nM
EC50 ([3]; Homo sapiens, NCl-H358, Lung, growth inhibition (GI) curve, single agent, 72 h): 18.2 nM
IC50 ([3]; Homo sapiens, NCI-H358, NCl-H358, Lung, Additional Single Agent Responses (inhibition, % I), 72 h): 20.3 nM
GI50 ([3]; Homo sapiens, NCI-H358, NCl-H358, Lung, growth inhibition (GI) curve, single agent, 72 h): 18.3 nM
GI50 ([4]; Homo sapiens, Panc 04.03, 72 h): 50.8 nM
EC50 ([4]; Homo sapiens, Panc 04.03, 72 h, Additional Single Agent Responses (inhibition, % I), 72 h): 18.7 nM
EC50 ([4]; Homo sapiens, Panc 04.03, 72 h, growth inhibition (GI) curve, single agent, 72 h): 19.2 nM
EC50 [5, 18]: 35.4 nM
EC50 [5, 19]: 42.1 nM
IC50 [5, 18]: 53.4 nM
GI50 [5, 19]: 34.1 nM
SMILES: CN1CCN(c2ccc(OC(F)(F)F)c(Nc3ncc4c(n3)-c3c(c(C(N)=O)nn3CCO)CC4)c2)CC1 [Onvansertib]
Best CI [1, 6]: 0.65
Bliss Volume [1, 6]: 4.26
HSA volume [1, 6]: 1.33
Loewe Volume [1, 6]: 0.16
Synergy Score [1, 6]: 3.96
Response Area ([1]; HCC44, Lung, Additional Single Agent Responses (inhibition, % I), 72 h): 3.83
Response Area ([1]; HCC44, Lung, growth inhibition (GI), AUC, single agent, 72 h): 5.16
Emax ([1]; Homo sapiens, HCC44, Lung, Additional Single Agent Responses, 72 h, read-out: Max Response (% I)): 81%
Emax ([1]; Homo sapiens, HCC44, Lung, growth inhibition (GI), single agent, 72 h, read-out: Max Response (% GI)): 112%
Best CI [1, 9]: 0.80
Bliss Volume [1, 9]: −0.85
HSA volume [1, 9]: 0.68
Loewe Volume [1, 9]: −0.34
Synergy Score [1, 9]: 0.67
Best CI Level ([1]; enhancer combined with MEI-522 (Voruciclib), HCC44 (Lung), 72 hours, inhibition data, unit assumed): 20%
EC50 [2, 10]: 34.9 nM
EC50 [2, 11]: 34.7 nM
IC50 [2, 10]: 55.5 nM
Emax ([2]; Homo sapiens, KYSE-410, Esophageal, Additional Single Agent Responses, 72 h, read-out: Max Response (% I)): 65%
GI50 [2, 11]: 43.1 nM
Emax ([2]; Homo sapiens, KYSE-410, Esophageal, growth inhibition (GI), single agent, 72 h, read-out: Max Response (% GI)): 78%
Best CI [2, 12]: 0.60
Bliss Volume [2, 12]: −1.39
HSA volume [2, 12]: −2.18
Loewe Volume [2, 12]: −2.01
Synergy Score [2, 12]: 0.29
Response Area ([2]; KYSE-410, Esophageal, Additional Single Agent Responses (inhibition, % I), 72 h): 2.89
Response Area ([2]; KYSE-410, Esophageal, growth inhibition (GI), AUC, single agent, 72 h): 3.49
Best CI [2, 13]: 0.68
Bliss Volume [2, 13]: −1.63
HSA volume [2, 13]: −1.72
Loewe Volume [2, 13]: −1.53
Synergy Score [2, 13]: 0.20
Best CI Level ([2]; enhancer combined with MEI-522 (Voruciclib), KYSE-410 (Esophageal), 72 hours, inhibition data, unit assumed): 20%
Emax ([3]; Homo sapiens, NCI-H358, NCl-H358, Lung, Additional Single Agent Responses, 72 h, read-out: Max Response (% I)): 82%
Emax ([3]; Homo sapiens, NCI-H358, NCl-H358, Lung, growth inhibition (GI), single agent, 72 h, read-out: Max Response (% GI)): 127%
Best CI [3, 14]: 0.27
Bliss Volume [3, 14]: −1.00
HSA volume [3, 14]: −5.36
Loewe Volume [3, 14]: −3.73
Synergy Score [3, 14]: 6.46
Response Area ([3]; NCl-H358, Lung, Additional Single Agent Responses (inhibition, % I), 72 h): 3.36
Response Area ([3]; NCl-H358, Lung, growth inhibition (GI), AUC, single agent, 72 h): 4.69
Best CI [3, 15]: 0.38
Best CI Level [3, 15]: 75
Bliss Volume [3, 15]: −3.69
HSA volume [3, 15]: −3.63
Loewe Volume [3, 15]: −3.23
Synergy Score [3, 15]: 1.36
Emax ([4]; Homo sapiens, Panc 04.03, 72 h, read-out: Max Response (% GI)): 70%
Emax ([4]; Homo sapiens, Panc 04.03, 72 h, read-out: Max Response (% I)): 54%
Best CI [4, 16]: 0.32
Bliss Volume [4, 16]: 2.32
HSA volume [4, 16]: 0.85
Loewe Volume [4, 16]: 0.87
Synergy Score [4, 16]: 1.99
Response Area ([4]; Additional Single Agent Responses (inhibition, % I), 72 h): 1.94
Response Area ([4]; growth inhibition (GI), AUC, single agent, 72 h): 2.60
Best CI [4, 17]: 0.64
Best CI Level [4, 17]: 20
Bliss Volume [4, 17]: 0.17
HSA volume [4, 17]: 0.61
Loewe Volume [4, 17]: 0.89
Synergy Score [4, 17]: 0.98
Emax ([5]; Homo sapiens, SW837, Colorectal, Additional Single Agent Responses, 72 h, read-out: Max Response (% I)): 76%
Emax ([5]; Homo sapiens, SW837, Colorectal, growth inhibition (GI), single agent, 72 h, read-out: Max Response (% GI)): 118%
Best CI [5, 20]: 0.78
Bliss Volume [5, 20]: 0.66
HSA volume [5, 20]: −1.30
Loewe Volume [5, 20]: −4.09
Synergy Score [5, 20]: 0.88
Response Area ([5]; SW837, Colorectal, Additional Single Agent Responses (inhibition, % I), 72 h): 3.32
Response Area ([5]; SW837, Colorectal, growth inhibition (GI), AUC, single agent, 72 h): 5.06
Best CI [5, 21]: 0.76
Best CI Level [5, 21]: 20
Bliss Volume [5, 21]: −1.39
HSA volume [5, 21]: −0.59
Loewe Volume [5, 21]: −2.03
Synergy Score [5, 21]: 0.33
